PubChem BioAssay (NCI)
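At the GI50, growth is halved. TGI: total growth inhibition.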

Legend:
Assay in all cases: inhibition of tumour cell growth, NCI panel, 384-well format
[1] = tested on: T-47D breast
[2] = tested on: MOLT-4 leukemia
[3] = tested on: U251 glioblastoma
[4] = tested on: SN12C renal
[5] = tested on: A498 renal
[6] = tested on: OVCAR-3 ovarian
[7] = tested on: HOP-62 NSCLC
[8] = tested on: TK-10 renal
[9] = tested on: LOX IMVI melanoma
[10] = tested on: IGROV1 ovarian
[11] = tested on: MDA-MB-231 breast
[12] = tested on: SNB-19 CNS
[13] = tested on: K-562 leukemia
[14] = tested on: RXF 393 renal
[15] = tested on: NCI-H23 lung
[16] = tested on: SF-295 CNS
[17] = tested on: MALME-3M melanoma
[18] = tested on: A549 NSCLC
[19] = tested on: MDA-MB-435 melanoma
[20] = tested on: OVCAR-4 ovarian
[21] = tested on: UO-31 renal
[22] = tested on: HOP-92 NSCLC
[23] = tested on: HCT-15 colon
[24] = tested on: KM12 colon
[25] = tested on: MDA-MB-468 breast
[26] = tested on: DU-145 prostate
[27] = tested on: OVCAR-8 ovarian
[28] = tested on: HCC-2998 colon
[29] = tested on: NCI-H322M lung
[30] = tested on: SK-MEL-5 melanoma
[31] = tested on: SK-MEL-2 melanoma
[32] = tested on: CCRF-CEM leukemia
[33] = tested on: RPMI-8226 leukemia
[34] = tested on: SK-MEL-28 melanoma
[35] = tested on: SF-268 CNS
[36] = tested on: UACC-62 melanoma
[37] = tested on: HL-60(TB) leukemia
[38] = tested on: OVCAR-5 ovarian
[39] = tested on: MCF7 breast
[40] = tested on: HT29 colon
[41] = tested on: HCT-116 colon
[42] = tested on: NCI/ADR-RES ovarian
[43] = tested on: 786-0 renal
[44] = tested on: M14 melanoma
[45] = tested on: NCI-H460 NSCLC
[46] = tested on: SW-620 colon
[47] = tested on: BT-549 breast
[48] = tested on: COLO 205 colon
[49] = tested on: NCI-H226 lung
[50] = tested on: PC-3 prostate
[51] = tested on: SF-539 CNS
[52] = tested on: SR leukemia
[53] = tested on: ACHN renal
[54] = tested on: SK-OV-3 ovarian
[55] = tested on: CAKI-1 renal
[56] = tested on: UACC-257 melanoma

CCCC[C@@H](COC(=O)N(Cc1cccs1)Cc1cccs1)NC(=O)N[C@@H](CC(=O)OC)c1ccc2c(c1)OCO2
GI50 [1]: 50.5 µM
TGI [1]: > 100 µM
GI50 [2]: 2.28 µM
TGI [2]: 4.54 µM
GI50 [3]: > 100 µM
TGI [3]: > 100 µM
GI50 [4]: > 100 µM
TGI [4]: > 100 µM
GI50 [5]: > 100 µM
TGI [5]: > 100 µM
GI50 [6]: > 100 µM
TGI [6]: > 100 µM
GI50 [7]: > 100 µM
TGI [7]: > 100 µM
GI50 [8]: > 100 µM
TGI [8]: > 100 µM
GI50 [9]: > 100 µM
TGI [9]: > 100 µM
GI50 [10]: > 100 µM
TGI [10]: > 100 µM
GI50 [11]: > 100 µM
TGI [11]: > 100 µM
GI50 [12]: > 100 µM
TGI [12]: > 100 µM
GI50 [13]: > 100 µM
TGI [13]: > 100 µM
GI50 [14]: 5.08 µM
TGI [14]: > 100 µM
GI50 [15]: 90.7 µM
TGI [15]: > 100 µM
GI50 [16]: > 100 µM
TGI [16]: > 100 µM
GI50 [17]: > 100 µM
TGI [17]: > 100 µM
GI50 [18]: > 100 µM
TGI [18]: > 100 µM
GI50 [19]: > 100 µM
TGI [19]: > 100 µM
GI50 [20]: > 100 µM
TGI [20]: > 100 µM
GI50 [21]: 53.2 µM
TGI [21]: > 100 µM
GI50 [22]: > 100 µM
TGI [22]: > 100 µM
GI50 [23]: > 100 µM
TGI [23]: > 100 µM
GI50 [24]: > 100 µM
TGI [24]: > 100 µM
GI50 [25]: > 100 µM
TGI [25]: > 100 µM
GI50 [26]: > 100 µM
TGI [26]: > 100 µM
GI50 [27]: > 100 µM
TGI [27]: > 100 µM
GI50 [28]: > 100 µM
TGI [28]: > 100 µM
GI50 [29]: > 100 µM
TGI [29]: > 100 µM
GI50 [30]: 83 µM
TGI [30]: > 100 µM
GI50 [31]: > 100 µM
TGI [31]: > 100 µM
GI50 [32]: > 100 µM
TGI [32]: > 100 µM
GI50 [33]: 2.87 µM
TGI [33]: 6.14 µM
GI50 [34]: > 100 µM
TGI [34]: > 100 µM
GI50 [35]: > 100 µM
TGI [35]: > 100 µM
GI50 [36]: 65 µM
TGI [36]: > 100 µM
GI50 [37]: 14.6 µM
TGI [37]: > 100 µM
GI50 [38]: > 100 µM
TGI [38]: > 100 µM
GI50 [39]: > 100 µM
TGI [39]: > 100 µM
GI50 [40]: > 100 µM
TGI [40]: > 100 µM
GI50 [41]: 7.28 µM
TGI [41]: > 100 µM
GI50 [42]: 55.5 µM
TGI [42]: > 100 µM
GI50 [43]: > 100 µM
TGI [43]: > 100 µM
GI50 [44]: > 100 µM
TGI [44]: > 100 µM
GI50 [45]: > 100 µM
TGI [45]: > 100 µM
GI50 [46]: > 100 µM
TGI [46]: > 100 µM
GI50 [47]: > 100 µM
TGI [47]: > 100 µM
GI50 [48]: > 100 µM
TGI [48]: > 100 µM
GI50 [49]: > 100 µM
TGI [49]: > 100 µM
GI50 [50]: > 100 µM
TGI [50]: > 100 µM
GI50 [51]: > 100 µM
TGI [51]: > 100 µM
GI50 [52]: 6.03 µM
TGI [52]: > 100 µM
GI50 [53]: > 100 µM
TGI [53]: > 100 µM
GI50 [54]: > 100 µM
TGI [54]: > 100 µM
GI50 [55]: > 100 µM
TGI [55]: > 100 µM
GI50 [56]: > 100 µM
TGI [56]: > 100 µM
